Laboratory results from patent US20240216289A1, “LIPIDOID NANOPARTICLES FOR THE TREATMENT OF DISEASES AND DISORDERS” (Trustees of Tufts College, priority 2021, published 2024).
Entries after “also recorded” stand apart in the source; their conditions may differ.

Columns and labels:
inguinal lymph nodes = assay: Luc mRNA expression in inguinal lymph nodes after subcutaneous tail-base injection of LNP/mLuc (IVIS); format: in vivo, Balb/c mice; conditions: subcutaneous at tail base, 6 h, bioluminescence
liver [1] = assay: Luc mRNA expression in liver after subcutaneous tail-base injection of LNP/mLuc (IVIS); format: in vivo, Balb/c mice; conditions: subcutaneous at tail base, 6 h, bioluminescence
[2] = tested on: macrophages and dendritic cells (DCs) in inguinal lymph nodes; assay: Delivery of Cre mRNA to LNs in Ai14 reporter mice (tdTomato positive cells, flow cytometry); format: in vivo; conditions: LNP/Cre mRNA s.c., 48 h; result in words
OVA = assay: ELISA for antibody titer after OVA mRNA vaccination; format: in vivo; conditions: 14 days after second dose
HEK293T cells = assay: 5′UTR and 3′UTR optimization in HEK293T cells (eGFP, flow cytometry); format: cell-based; conditions: LPF2k
Method: 5′UTR optimization in HEK293T cells. Prior to transfection, HEK293T cells were seeded on a 48-well plate at 40,000 cells/well, with 500 μL DMEM culture in each well. 6 groups were set with different treatments: Lipofectamine 2000 (LPF2k) only, pcDNA3.0-eGFP, pcDNA3.0-NCA7d-eGFP, pcDNA-70nt-eGFP, pcDNA3.0-Ces1d-eGFP and pcDNA3.0-S27a45′-eGFP. LPF2k was complexed each plasmid in equal amount (0.5 μg/0.5 μg) before being added to each well. At each time point (36 hrs, 60 hrs, 84 hrs and 108 hrs), cells were washed with PBS and then treated with 500 μL 0.25% Typsine-EDTA 10 (Gibco) for 3 min. Resuspended cells were applied to the Attune NxT Flow Cytometer (Thermo Fisher) directly (FIG. 10).
3′UTR optimization in HEK293T cell. Similar to 5′UTR optimization, thirteen 3′UTRs modified pcDNA3.0-Ces1d-eGFP and pcDNA3.0-70nt-eGFP were encapsulated in LPF2k at a 1:1 weight ratio and then transfected into HEK293T cells. At each time point (48 hrs, 72 hrs, 96 hrs and 120 hrs), cells were washed with PBS and then treated with 500 μL 0.25% Typsine-EDTA (Gibco) for 3 min. Resuspended cell were applied to the Attune NxT Flow Cytometer (Thermo Fisher) directly (FIG. 11).

liver [3] = assay: Mouse liver-directed 3′UTR and cap screening in mRNA format (L88 LNP, IVIS); format: in vivo, BALB/c mice; conditions: Lipid 88 delivery, 0.2 mg/kg IV
Method: Mouse liver-directed 3′UTR screening in mRNA format. 6-week-old female BALB/c mice were used for in vivo modified Fluc-eGFP mRNA screening with L88 LNP delivery. Each UTRs modified Fluc-eGFP mRNA were encapsulated in an optimal Lipid 88 formulation (L88:Chol:DOPC:DMG-PEG=16:4:2:1, w w) at the weight ratio of 1:10 in PBS solution (RNase-free). The L88/Fluc-eGFP mRNA complex was intravenously injected into the mice at a mRNA dose of 0.2 mg/kg. At each preset time point, mice were injected with 100 μL of D-Luciferin potassium salt (GoldBio) solution (15 mg/mL in PBS), anesthetized under isoflurane anesthesia, and evaluated using IVIS imaging system (Caliper Life Sciences, US).

[4] = tested on: IFN γ and IL-4 positive T cells; assay: IFN γ and IL-4 ELISpot after S protein mRNA vaccination; format: in vivo, mice; conditions: spleen day 28
Method: The blood and spleen were collected at day 28 for further analysis.
The T cell response after the vaccination was analyzed by IFN γ and IL-4 ELISpot (FIGS. 5A-C).
The T cell response after vaccination was tested by ELISpot assay.

CCCCCCCCC(CCCCCC)C(=O)OCCCCCCN(CCCCO)CCCCCCOC(=O)C(CCCCCC)CCCCCCCC (stereo not shown) [ALC-0315]
Luc mRNA expression in inguinal (draining) lymph nodes (inguinal lymph nodes): obvious signal in draining LNs | Luc mRNA expression in liver (liver [1]): significantly increased expression of Luc in liver; also recorded: significantly higher expression in liver | transfection of cells in inguinal lymph nodes [2]: less efficacy compared with 113-F2 LNP; also recorded: successfully delivered Cre mRNA to antigen-presenting cells (APC) | antibody response (total IgG, IgG1, IgG2c) (OVA): peak antibody level

Apolipoprotein A-II
eGFP expression, 3′UTR in pcDNA3.0-70nt-eGFP (HEK293T cells; 48-120 hrs): top-performing 3′UTR candidates | ARCA capped 70nt-Fluc-eGFP mRNA Fluc expression in the liver (liver [3]): highest Fluc expression in the liver relative to other eight 3′UTR modifications

Pam3CSK4
Luc mRNA expression in inguinal (draining) lymph nodes (inguinal lymph nodes): decreased the mRNA expression in draining lymph nodes | transfection of cells in inguinal lymph nodes [2]: decreased the transfection efficacy | IL-4 positive T cells (ELISpot) [4]: increased the Th1 T cell response and percentage of IL-4 secreting T cells; also recorded: significantly induced IL-4 secreting T cells compared with all other groups

B1: Ces1d: 5′UTR fragment, sequence in Table 1 (nucleic acid)
DNA: CCACTAGTTCTAGAGGTACCTTGGACCCTCGTACAGAAGCTAATACGACTCACTATAAGGAGGCGGGTCCCCTGGTCCACAACAGAAGCATTGCTAAAGCAGCAGATAGCTCAGAGACCCACAGAGCCCTTGTCCTTCCACAGAATTCGCCACCATGGAAGA
eGFP expression, 5′UTR in pcDNA3.0-eGFP (HEK293T cells; 36-108 hrs): top-performing 5′UTR candidates
